Like-named read-outs stand apart in the source and are kept apart here.
System: PLB-985 cells
Assay: ROS production (isoluminol/HRP luminescence) in PLB-985 cells, Biological Example 1
Assay type: cell-based
Protocol: To cells (HL-60 or PLB-985) in HBSS medium was added compound (25 or 50 μM), isoluminol and Horse Radish Peroxidase, fraction II. Luminescence was measured for 10-30 minutes and the area under the […] curve was divided by that from a control experiment to give the activity expressed as fold change.
Each assay indicated below was performed at a different site, at a different time, by different personnel and/or using different cell lines, concentrations and controls. The cell line, concentration of example compound and control used in respect of each assay were as indicated below. The values obtained from these different setups (each using an otherwise identical assay) are given as Activity A, B, C, D or E in Table 5 below. The values are expressed as fold increase of NADPH activity in the presence of the relevant of compound (as indicated below) compared to the relevant control (as indicated below).
Activity A: HL-60 cells; 50 μM compound vs. blank Activity B: PLB-985 cells; 25 μM compound vs. blank Activity C, D and E: PLB-985 cells; 25 μM compound vs. DMSO

[1] = 25 μM compound vs. DMSO, setup C, read-out: Activity C (fold increase of NADPH activity compared to control)
[2] = 25 μM compound vs. blank, read-out: Activity B (fold increase of NADPH activity compared to control)
[3] = 25 μM compound vs. DMSO, setup D, read-out: Activity D (fold increase of NADPH activity compared to control)
[4] = 25 μM compound vs. DMSO, setup E, read-out: Activity E (fold increase of NADPH activity compared to control)

Compound	fold induction at 25 µM [1]	fold induction at 25 µM [2]	fold induction at 25 µM [3]	fold induction at 25 µM [4]
Cc1ccc(C(=O)c2cn(CC(=O)Nc3ccc4c(c3)OCCO4)c3cc4c(cc3c2=O)OCO4)cc1C [Example 74, 2-[3-(3,4-Dimethylbenzoyl)-6,7-methylenedioxy-4-oxo-1-quinolinyl]-N-(3,4-ethylenedioxyphenyl)-acetamide]	20.1	38		
CCOc1ccc2c(c1)c(=O)c(C(=O)c1ccc(F)cc1)cn2CC(=O)Nc1ccc(OC)cc1 [Example 102, N-p-Anisyl-2-[6-ethoxy-3-(4-fluorobenzoyl)-4-oxo-1-quinolinyl]acetamide]			2.1	
CCOc1ccc(C(=O)c2cn(CC(=O)Nc3ccc4c(c3)OCCO4)c3cc4c(cc3c2=O)OCO4)cc1 [Example 66, 2-[3-(4-Ethoxybenzoyl)-6,7-methylenedioxy-4-oxo-1-quinolinyl]-N-(3,4-ethylenedioxyphenyl)acetamide]	2.5	2.7		
O=C(Cn1cc(C(=O)c2ccc(F)cc2)c(=O)c2cc3c(cc21)OCO3)Nc1ccc2c(c1)OCCO2 [Example 81, N-(3,4-Ethylenedioxyphenyl)-2-[3-(4-fluorobenzoyl)-6,7-methylenedioxy-4-oxo-1-quinolinyl]acetamide]	22.6			
Cc1ccc(NC(=O)Cn2cc(C(=O)c3ccc4ccccc4c3)c(=O)c3cc4c(cc32)OCO4)cc1 [Example 2, 2-[6,7-Methylenedioxy-3-(2-naphthoyl)-4-oxo-1-quinolinyl]-N-p-tolylacetamide]				10
O=C(Cn1cc(C(=O)c2ccc(F)cc2)c(=O)c2cc3c(cc21)OCO3)Nc1ccc(F)cc1 [Example 55, 2-[3-(4-Fluorobenzoyl)-6,7-methylenedioxy-4-oxo-1-quinolinyl]-N-(4-fluorophenyl)acetamide]	19.6	6.3		
O=C(Cn1cc(C(=O)c2ccc(Cl)cc2)c(=O)c2cc3c(cc21)OCO3)Nc1ccc2c(c1)OCCO2 [Example 60, 2-[3-(4-Chlorobenzoyl)-6,7-methylenedioxy-4-oxo-1-quinolinyl]-N-(3,4-ethylenedioxyphenyl)acetamide]	33.3	51.8		
COc1ccc(NC(=O)Cn2cc(C(=O)c3ccc(F)cc3)c(=O)c3cc4c(cc32)OCO4)cc1 [Example 54, N-p-Anisyl-2-[(4-fluorobenzoyl)-6,7-methylenedioxy-4-oxo-1-quinolinyl]acetamide]	61.5	74.2	13.5	
COc1ccc(NC(=O)Cn2cc(C(=O)c3ccc(F)cc3)c(=O)c3cc(Cl)ccc32)cc1 [Example 109, N-p-Anisyl-2-[6-chloro-3-(4-fluorobenzoyl)-4-oxo-1-quinolinyl]acetamide]			2.5	
COc1ccc(NC(=O)Cn2cc(S(=O)(=O)c3ccccc3)c(=O)c3cc4c(cc32)OCO4)cc1 [Example 85, N-p-Anisyl-2-(3-benzenesulfonyl-6,7-methylenedioxy-4-oxo-1-quinolinyl)acetamide]	12.2			
COc1ccc(C(=O)c2cn(CC(=O)Nc3cccc(OC)c3)c3cc4c(cc3c2=O)OCO4)cc1 [Example 77]	2.8			
Cc1ccc(C(=O)c2cn(CC(=O)Nc3ccc(Cl)cc3)c3cc4c(cc3c2=O)OCO4)cc1C [Example 50, N-(4-Chlorophenyl)-2-[3-(3,4-dimethylbenzoyl)-6,7-methylenedioxy-4-oxo-1-quinolinyl]acetamide]	62.8	163		
CCc1ccc(C(=O)c2cn(CC(=O)Nc3ccc4c(c3)OCO4)c3cc4c(cc3c2=O)OCO4)cc1 [Example 78, 2-[3-(4-Ethylbenzoyl)-6,7-methylenedioxy-4-oxo-1-quinolinyl]-N-(3,4-methylenedioxyphenyl)acetamide]	11.6			
COc1cc(OC)c2c(=O)c(C(=O)c3ccc(F)cc3)cn(CC(=O)Nc3ccc(Cl)cc3)c2c1 [Example 44]				78.1
